Source: patent US8247170B2, “Detection of penicillin tolerance in Group B Streptococcus: single nucleotide polymorphisms in penicillin binding protein 4” (priority 2008, dated 2012)

System: GBS clinical isolates and laboratory strains
Assay: Macrobroth penicillin tolerance assay
Type: cell-based, Group B Streptococcus
Conditions: then 24 h drug-free; for 30xMIC, regrowth O.D.600: Penicillin G 30×MIC90 48 h; for 100xMIC, regrowth O.D.600: Penicillin G 100×MIC90 48 h; for 300xMIC, regrowth O.D.600: Penicillin G 300×MIC90 48 h; for 10xMIC, regrowth O.D.600: Penicillin G 10×MIC90 48 h
Method: Using this modified penicillin tolerance assay, tolerant strains from the GBS clinical isolates can be more efficiently identified. In this macrobroth culture format, 25 ml THB broth GBS cultures (containing clinical isolates) were grown to an early exponential growth phase (˜0.2 OD600). Cell cultures (6 ml) were collected and divided into 4 culture tubes. […] Cell cultures were shaken at 150 rpm in order to maintain cells in suspension for proper growth. Subcultures (1/20 dilution) of cells were put into fresh THB containing […] Penase (i.e., 100 μl of Penase 10,000 U stock into 4 ml THB culture). Subcultures were allowed to grow for 24 hours at 37° C. Cell growth was monitored by OD (see Example 2).
(I) Bacterial Strains and Culture Conditions. GBS strains A909 (serotype IA), 515 (serotype IA), NEM316 (serotype III), COHI (serotype III), 2603V/R (serotype V) and O90R (non-typable) were used in this study. E. coli Top10 cells were used for the recombination experiments. GBS was cultured in Todd Hewitt broth (THB) or Tryptic Soy 5% sheep blood (TS) media and E. coli in Luria-broth (LB) medium or agar. Antibiotics were used at the following concentrations: for GBS—penicillin G (MIC90 0.06 μg ml^−1), ampicillin (MIC90 0.12 μg ml^−1), vancomycin (MIC90 2 μg ml^−1), cefazolin (MIC90 1 μg ml^−1) and chloramphenicol (5 μg ml^−1); for E. coli—ampicillin (50 μg ml^−1) and chloramphenicol (5 μg ml^−1). Both GBS and E. coli cultures were grown at 37° C. (II) Tolerance Using the MBC:MIC Ratio Method. Three GBS laboratory strains (i.e., A909, NEM316, and O90R) were cultured overnight for 18 h at 37° C. in THB. Subcultures in THB were subsequently grown to exponential phase (OD600˜0.3; i.e. 5×10^5 cfu/ml) at 37° C. Cell cultures were then exposed to different concentrations of antibiotics (Penicillin G, Ampicillin, Cefozolin or Vancomycin). […] Cell cultures were dispersed every 18 h before OD600 was measured to determine the lowest concentration of antibiotic with 90% growth inhibition (MIC90). Antibiotic treated cells (8 μl) from each well were re-suspended into PBS (100 μl) and plated (54 μl) on TS agar plates and allowed to grow for an additional 24 h at 37° C. Cell count was performed to determine the lowest concentration of antibiotic with 90% killing of original inoculums (MBC90). (III) Penicillin Killing and Regrowth Tolerance Assay by Microbroth Dilution. Three GBS laboratory strains (i.e., A909, NEM316, and O90R) were cultured overnight for 18 h at 37° C. in THB. Subcultures in THB were subsequently grown to exponential phase (OD600˜0.3) at 37° C. Cell cultures were then exposed to different concentrations of Penicillin G (Sigma, St. Louis, Mo.). […] Cell cultures were dispersed. A 1:20 dilution of cells was re-plated into new wells containing fresh THB with 500 U Penase (to degrade residual penicillin). Cell cultures were allowed to re-grow for an additional 24 h at 37° C. before the OD600 was measured. (IV) Measuring Cell Viability by Determining ATP Concentration. GBS strains were cultured for 18 h at 37° C. in THB. These cells were inoculated into fresh THB and subsequently allowed to grow to exponential phase (OD600 0.25-0.3) at 37° C. One ml of each culture was centrifuged at 5,000×g for 4 min. The cell pellet was re-suspended in ATP-free water. Cellular ATP was extracted using trichloroacetic acid (TCA) (5%) for 2 min and subsequently neutralized with Tris-EDTA-0.1M NaOAc, pH 7.75 to 10×TCA volume. The initial (in.) cellular ATP concentration ([ATP]) was measured using the ENLITEN (Promega) luciferase based reaction kit. THB cultures were then treated with 100×MIC90 Penicillin G for 22 h. The experimental (exp.) cellular ATP was extracted and the concentration was measured as stated above. Based on the calculations ([ATP] exp.)/([ATP] in./O.D. in.), differences in viability were equated with the change in [ATP]. (V) Measuring Penicillin Induced Lysis. Three GBS laboratory strains (A909, NEM316, and O90R) were cultured for 18 h at 37° C. in THB. […]

CC1(C)S[C@@H]2[C@H](NC(=O)Cc3ccccc3)C(=O)N2[C@H]1C(=O)O [Penicillin G]
30xMIC, regrowth O.D.600 (GBS strain 172 (NT)): −− (“−−” indicates an O.D.600 of 0.001 to 0.099) | 100xMIC, regrowth O.D.600 (GBS strain 172 (NT)): −− (“−−” indicates an O.D.600 of 0.001 to 0.099) | 300xMIC, regrowth O.D.600 (GBS strain 172 (NT)): −− (“−−” indicates an O.D.600 of 0.001 to 0.099) | 10xMIC, regrowth O.D.600 (GBS strain 180 (V)): −− (“−−” indicates an O.D.600 of 0.001 to 0.099) | 30xMIC, regrowth O.D.600 (GBS strain 180 (V)): −− (“−−” indicates an O.D.600 of 0.001 to 0.099) | 100xMIC, regrowth O.D.600 (GBS strain 180 (V)): −− (“−−” indicates an O.D.600 of 0.001 to 0.099) | 300xMIC, regrowth O.D.600 (GBS strain 180 (V)): −− (“−−” indicates an O.D.600 of 0.001 to 0.099) | 10xMIC, regrowth O.D.600 (GBS strain 193 (III)): −− (“−−” indicates an O.D.600 of 0.001 to 0.099) | 30xMIC, regrowth O.D.600 (GBS strain 193 (III)): −− (“−−” indicates an O.D.600 of 0.001 to 0.099) | 100xMIC, regrowth O.D.600 (GBS strain 193 (III)): −− (“−−” indicates an O.D.600 of 0.001 to 0.099) | 300xMIC, regrowth O.D.600 (GBS strain 193 (III)): −− (“−−” indicates an O.D.600 of 0.001 to 0.099) | 10xMIC, regrowth O.D.600 (GBS strain 204 (V)): −− (“−−” indicates an O.D.600 of 0.001 to 0.099) | 30xMIC, regrowth O.D.600 (GBS strain 204 (V)): −− (“−−” indicates an O.D.600 of 0.001 to 0.099) | 100xMIC, regrowth O.D.600 (GBS strain 204 (V)): −− (“−−” indicates an O.D.600 of 0.001 to 0.099) | 300xMIC, regrowth O.D.600 (GBS strain 204 (V)): −− (“−−” indicates an O.D.600 of 0.001 to 0.099) | 10xMIC, regrowth O.D.600 (GBS strain 211 (Ib)): −− (“−−” indicates an O.D.600 of 0.001 to 0.099) | 30xMIC, regrowth O.D.600 (GBS strain 211 (Ib)): −− (“−−” indicates an O.D.600 of 0.001 to 0.099) | 100xMIC, regrowth O.D.600 (GBS strain 211 (Ib)): −− (“−−” indicates an O.D.600 of 0.001 to 0.099) | 300xMIC, regrowth O.D.600 (GBS strain 211 (Ib)): −− (“−−” indicates an O.D.600 of 0.001 to 0.099) | 10xMIC, regrowth O.D.600 (GBS strain 219 (Ia)): + (“+” indicates an O.D.600 of 0.100 to 0.250) | 30xMIC, regrowth O.D.600 (GBS strain 219 (Ia)): + (“+” indicates an O.D.600 of 0.100 to 0.250) | 100xMIC, regrowth O.D.600 (GBS strain 219 (Ia)): + (“+” indicates an O.D.600 of 0.100 to 0.250) | 300xMIC, regrowth O.D.600 (GBS strain 219 (Ia)): + (“+” indicates an O.D.600 of 0.100 to 0.250) | 10xMIC, regrowth O.D.600 (GBS strain 244 (Ib)): −− (“−−” indicates an O.D.600 of 0.001 to 0.099) | 30xMIC, regrowth O.D.600 (GBS strain 244 (Ib)): −− (“−−” indicates an O.D.600 of 0.001 to 0.099) | 100xMIC, regrowth O.D.600 (GBS strain 244 (Ib)): −− (“−−” indicates an O.D.600 of 0.001 to 0.099) | 300xMIC, regrowth O.D.600 (GBS strain 244 (Ib)): −− (“−−” indicates an O.D.600 of 0.001 to 0.099) | 10xMIC, regrowth O.D.600 (GBS strain 264 (V)): +++ (“+++” indicates an O.D.600 of 0.751 to 1.500) | 30xMIC, regrowth O.D.600 (GBS strain 264 (V)): ++ (“++” indicates an O.D.600 of 0.251 to 0.750) | 100xMIC, regrowth O.D.600 (GBS strain 264 (V)): −− (“−−” indicates an O.D.600 of 0.001 to 0.099) | 300xMIC, regrowth O.D.600 (GBS strain 264 (V)): ++ (“++” indicates an O.D.600 of 0.251 to 0.750) | 10xMIC, regrowth O.D.600 (GBS strain 268 (Ib)): ++ (“++” indicates an O.D.600 of 0.251 to 0.750) | 30xMIC, regrowth O.D.600 (GBS strain 268 (Ib)): −− (“−−” indicates an O.D.600 of 0.001 to 0.099) | 100xMIC, regrowth O.D.600 (GBS strain 268 (Ib)): +++ (“+++” indicates an O.D.600 of 0.751 to 1.500) | 300xMIC, regrowth O.D.600 (GBS strain 268 (Ib)): +++ (“+++” indicates an O.D.600 of 0.751 to 1.500) | 10xMIC, regrowth O.D.600 (GBS strain 272 (V)): −− (“−−” indicates an O.D.600 of 0.001 to 0.099) | 30xMIC, regrowth O.D.600 (GBS strain 272 (V)): −− (“−−” indicates an O.D.600 of 0.001 to 0.099) | 100xMIC, regrowth O.D.600 (GBS strain 272 (V)): −− (“−−” indicates an O.D.600 of 0.001 to 0.099) | 300xMIC, regrowth O.D.600 (GBS strain 272 (V)): −− (“−−” indicates an O.D.600 of 0.001 to 0.099) | 10xMIC, regrowth O.D.600 (GBS strain 273 (V)): −− (“−−” indicates an O.D.600 of 0.001 to 0.099) | 30xMIC, regrowth O.D.600 (GBS strain 273 (V)): −− (“−−” indicates an O.D.600 of 0.001 to 0.099) | 100xMIC, regrowth O.D.600 (GBS strain 273 (V)): −− (“−−” indicates an O.D.600 of 0.001 to 0.099) | 300xMIC, regrowth O.D.600 (GBS strain 273 (V)): ++ (“++” indicates an O.D.600 of 0.251 to 0.750) | 10xMIC, regrowth O.D.600 (GBS strain 279 (III)): ++ (“++” indicates an O.D.600 of 0.251 to 0.750) | 30xMIC, regrowth O.D.600 (GBS strain 279 (III)): +++ (“+++” indicates an O.D.600 of 0.751 to 1.500) | 100xMIC, regrowth O.D.600 (GBS strain 279 (III)): ++ (“++” indicates an O.D.600 of 0.251 to 0.750) | 300xMIC, regrowth O.D.600 (GBS strain 279 (III)): ++ (“++” indicates an O.D.600 of 0.251 to 0.750) | 10xMIC, regrowth O.D.600 (GBS strain 296 (Ia)): −− (“−−” indicates an O.D.600 of 0.001 to 0.099) | 30xMIC, regrowth O.D.600 (GBS strain 296 (Ia)): −− (“−−” indicates an O.D.600 of 0.001 to 0.099) | 100xMIC, regrowth O.D.600 (GBS strain 296 (Ia)): ++ (“++” indicates an O.D.600 of 0.251 to 0.750) | 300xMIC, regrowth O.D.600 (GBS strain 296 (Ia)): −− (“−−” indicates an O.D.600 of 0.001 to 0.099) | 10xMIC, regrowth O.D.600 (GBS strain 306 (II)): −− (“−−” indicates an O.D.600 of 0.001 to 0.099) | 30xMIC, regrowth O.D.600 (GBS strain 306 (II)): −− (“−−” indicates an O.D.600 of 0.001 to 0.099) | 100xMIC, regrowth O.D.600 (GBS strain 306 (II)): −− (“−−” indicates an O.D.600 of 0.001 to 0.099) | 300xMIC, regrowth O.D.600 (GBS strain 306 (II)): −− (“−−” indicates an O.D.600 of 0.001 to 0.099) | 10xMIC, regrowth O.D.600 (GBS strain 307 (II)): −− (“−−” indicates an O.D.600 of 0.001 to 0.099) | 30xMIC, regrowth O.D.600 (GBS strain 307 (II)): −− (“−−” indicates an O.D.600 of 0.001 to 0.099) | 100xMIC, regrowth O.D.600 (GBS strain 307 (II)): −− (“−−” indicates an O.D.600 of 0.001 to 0.099) | 300xMIC, regrowth O.D.600 (GBS strain 307 (II)): −− (“−−” indicates an O.D.600 of 0.001 to 0.099)
